This note sets out measurements from patent publication US20240245085A1, “FLAVORING COMPOSITIONS FOR TASTE IMPROVEMENT” (SYMRISE AG, priority 2021, published 2024).

Holding throughout (assay type): in vivo
One assay has as its system vegan patty. Nature of the assay: Blind tasting of vegan patties by a panel (sensory profile). How it is done:
A vegan patty has been produced containing the following ingredients: water, leguminose protein isolate, sun flower oil, leguminose protein concentrate, coconut oil, methylcellulose, fiber, salt, starch, lactic acid and sodium diacetate. Water, thickener and starch are mixed with water, pH is adjusted, proteins are added next followed by fibre and oil ingredients. Finally, a taste masking ingredient according to Table 4 is added. The ingredients are thoroughly mixed and the dough is formed to patties. The patties where baked in an oven at 200° C. After cooling the patties, patties were sliced and samples were coded for a blind tasting with a panel.

In a further assay the test system is quinine (10 mg/kg). Nature of the assay: Bitter-duo test (paired comparison, trained panel, nose-clips) with quinine. How it is done: (§1) A trained panel was given different samples with the bitter tasting substances caffeine (500 mg/kg), quinine (10 mg/kg) and naringin (100 mg/kg). Caffeine is the bitter principle of coffee and coffee-type beverages, quinine is used as food additive to flavor tonics or energy drinks and naringin is the bitter principle of grapefruit juice. Each test includes a different amount of bitter-masking substances or mixtures thereof. During the tests, the panellists wear nose-clips to exclude any olfactory impressions. These tests are referred to as bitter-duo tests.
In a first trial, above mentioned bitter samples were mixed with 10 mg/kg eriodictyol-7-O-glucoside at a purity of >95%.
In a second test, the bitter agents were mixed with 50 mg/kg eriocitrin at a purity of >95% and the bitter-masking effect evaluated by the panel.
Another trial was set-up using samples with 10 mg/kg quinine and 50 mg/kg eriodictyol (ED) alone or with an inventive flavoring composition containing eriodictyol-7-O-glucoside (EDMG) and neoeriocitrin (NEC) eriocitrin (EC). […] The same effect was observed when using neoeriocitrin instead of eriocitrin. The wt.-% are based on the dry weight of the flavoring composition.
Other solvents than methanol, mixtures of solvents and different CV ratios can be used in order to achieve the same purification than with methanol as described herein. The column volume ration (CV) is the ratio of column bed volume and volume of solution flowing through column. The product was evaluated by a sensory panel (n=20).

Assay [1] concerns caffeine (500 mg/kg). Briefly: Pairwise bitter intensity rating (scale 1-100) in water with 500 mg/kg caffeine. The conditions noted are these: for bitter masking of caffeine solution (in words): 50 mg/kg, 500 mg/kg caffeine; for Bitter intensity [0-100] of base: taste modulator 50 mg/kg in water with 500 mg/kg caffeine. How it is done:
The said mixture can be compared with further taste modulating compounds to impart taste modulating sensory effects. […] A masking mixture comprising three parts hesperetin, two parts naringenin and two parts of the inventive citrus hydrolysate (55 wt.-% ED, 11.1 wt.-% EDMG, 1.5 wt.-% EC) was tested with 50 mg/kg dosage against naringenin, hesperetin and homoeriodictyol (No. 1-3, Table 5). The compounds and the mixture were all solved in water with added 500 mg/kg caffeine as bitter agent. The panelists were asked to rate the bitter intensity of each sample of one sample pair on a scale of 1-100. […] Said mixtures can be obtained by mixing the inventive citrus hydrolysate with hydrolysates from orange (yielding hesperetin), grapefruit or bergamot (yielding naringenin) or bitter orange and lime among other citrus fruits.

A further assay deals with naringin (100 mg/kg). Nature of the assay: Bitter-duo test (paired comparison, trained panel, nose-clips) with naringin. On the procedure: as §1, with “tests. In a first trial, above mentioned bitter samples were mixed with 10 mg/kg eriodictyol-7-O-glucoside at a purity of >95%. […] In a second test, the bitter agents were mixed with 50 mg/kg eriocitrin at a purity of >95% and the bitter-masking effect evaluated by the panel.” for “tests.”

The subject of assay [2] is caffeine (500 mg/kg). Briefly: Bitter-duo test (paired comparison, trained panel, nose-clips) with caffeine. How it is done:
as §1, with “tests. In a first trial, above mentioned bitter samples were mixed with 10 mg/kg eriodictyol-7-O-glucoside at a purity of >95%. […] In a second test, the bitter agents were mixed with 50 mg/kg eriocitrin at a purity of >95% and the bitter-masking effect evaluated by the panel.” for “tests.”

Assay [3] can be described thus: Own taste of eriodictyol-7-O-glucoside at higher concentration. The conditions noted are these: concentration above 50 mg/kg.
Setting [4] is: Table 2, dosage 10 mg/kg in table (text: 50 mg/kg), 20 panelists.
The mark [5] stands for this setting: Table 1, dosage 10 mg/kg, 20 panellists.

“Also recorded” adds a separate entry of the source.

For the molecule `O=C1C[C@@H](c2ccc(O)c(O)c2)Oc2cc(O)cc(O)c21` [ED, Eriodictyol], the “taste improving and bitter masking property (in words)” value with vegan patty is “improved the taste profile”. In the assay with quinine (10 mg/kg) (Table 3, dosage 50 mg/kg, 10 mg/kg quinine, 18-20 panellists), the “Bitter masking activity (%)” value is reported as −31.0%.
Regarding `COc1ccc([C@@H]2CC(=O)c3c(O)cc(O)cc3O2)cc1O` [Hesperetin], in the assay on caffeine (500 mg/kg) [1], the “bitter masking of caffeine solution (in words)” value is given as “not potent bitter masking compounds” and the “Bitter intensity [0-100] of base” value is given as 39.
As for `COc1cc([C@@H]2CC(=O)c3c(O)cc(O)cc3O2)ccc1O` [Homoeriodictyol], the “taste improving and bitter masking property (in words)” value with vegan patty is given as “improved the taste profile; also recorded: reduced the bitterness more than eriodictyol”. For the same molecule, the “Bitter intensity [0-100] of base” value in the assay with caffeine (500 mg/kg) [1] is on record as 37.5.
With `O=C1C[C@@H](c2ccc(O)cc2)Oc2cc(O)cc(O)c21` [Naringenin], in the assay with caffeine (500 mg/kg) [1], the “bitter masking of caffeine solution (in words)” value is “not potent bitter masking compounds” and the “Bitter intensity [0-100] of base” value worked out at 36.4.
As to `C[C@@H]1O[C@@H](OC[C@H]2O[C@@H](Oc3cc(O)c4c(c3)O[C@H](c3ccc(O)c(O)c3)CC4=O)[C@H](O)[C@@H](O)[C@@H]2O)[C@H](O)[C@H](O)[C@H]1O` [eriocitrin, Eriocitrin], the “bitter masking effect (in words)” value with quinine (10 mg/kg) (50 mg/kg, purity >95%, quinine 10 mg/kg) is “not significant”; with naringin (100 mg/kg) (50 mg/kg, purity >95%), “not significant”; with caffeine (500 mg/kg) [2] (50 mg/kg, purity >95%) it was “not significant”. Moreover, the “Bitter masking activity (%)” value was −1.6% with quinine (10 mg/kg) (Table 2, dosage 10 mg/kg in table (text: 50 mg/kg), quinine 10 mg/kg, 20 panelists); 0.8% in the assay with naringin (100 mg/kg) (setting [4]); 5.6% with caffeine (500 mg/kg) [2] (setting [4]).
In the case of `O=C1C[C@@H](c2ccc(O)c(O)c2)Oc2cc(O[C@@H]3O[C@H](CO)[C@@H](O)[C@H](O)[C@H]3O)cc(O)c21` [eriodictyol-7-O-glucoside], the “bitter-reducing effect (in words)” value with quinine (10 mg/kg) (10 mg/kg, purity >95%, quinine 10 mg/kg) was “not significant”; in the assay with naringin (100 mg/kg) (10 mg/kg, purity >95%), “not significant”; with caffeine (500 mg/kg) [2] (10 mg/kg, purity >95%), “not significant”. Also, the “Bitter masking activity (%)” value with quinine (10 mg/kg) (Table 1, dosage 10 mg/kg, quinine 10 mg/kg, 20 panellists) is listed as −7.42%; in the assay with naringin (100 mg/kg) (setting [5]), −2.59%; with caffeine (500 mg/kg) [2] (setting [5]) it was −1.94%. For the same molecule, in assay [3], the own taste notes entry is “bitter notes”.
